# According to patent US6663881B2 (priority 1993, dated 2003):
# How the values were obtained:
# [1] = tested on: Vascular smooth muscle (BO54) cells; type: cell-based, baboon
# [2] = tested on: Vascular smooth muscle cells
# [3] = tested on: Vascular smooth muscle (BO54) cells; type: cell-based, baboon; remark: listed apart in the source
# [4] = tested on: balloon traumatized left carotid artery; settings: rat, in vivo
# [5] = tested on: balloon traumatized left carotid artery; assay: Periadventitial delivery of taxol crystals in pluronic gel, balloon traumatized rat carotid artery; type: in vivo, rats
# Description: To further evaluate the efficacy of crystalline taxol to inhibit neointimal formation in rats, four groups of 5-6 adult male rats underwent balloon trauma of the left carotid artery followed immediately by periadventitial delivery of 1, 0.1, 0.01 or 0 mg of taxol crystals in 500 mg of a pluronic polymer in gel matrix. Fourteen days later, the rats were sacrificed, serum was collected and their carotid arteries were processed for histologic and morphometric analysis.
# [6] = Biodistribution of 3H-cytochalasin B i.v. (radioactivity); type: in vivo, BALB/c mice
# Description: ^3H-cytochalasin B (2 μg; 30 μCi/μg) was injected i.v. into BALB/c mice having urinary bladders that had been externally ligated. Animals were sacrificed at 15 minutes, 30 minutes, 2 hours or 16 hours post-injection. Organs were removed, blotted, weighed, air dried and assayed for radioactivity. Fifty −73% of the total injected dose was accounted for in the tissues sampled (blood, heart, brain, muscle, bone, lung, liver, spleen, stomach, kidney, intestines, and urinary bladder). Clearance of ^3H-cytochalasin B from the blood was extremely rapid with less than 1% of the injected dose in circulation by 15 minutes.
# [7] = MTT activity in human liver slices after 24 hour exposure; type: cell-based
# Description: The cytotoxity of ^3H-cytochalasin B and its subsequent metabolites was also assessed by evaluating dose dependent changes in mitochondrial function by monitoring 3-[4, 5-dimethylthiazol-2yl]-2, 5-diphenyltetrazolium bromide (MTT) activity following a 24 hour exposure of human liver slices to the test agent (Table 10).
# [8] = tested on: balloon traumatized swine femoral arteries; assay: Tissue distribution of crystalline 3H-cytochalasin B after local delivery; parameters: species or system Yorkshire crossbred swine; settings: in vivo
# Description: The in vivo tissue distribution of cytochalasin B administered in crystalline form was evaluated in balloon traumatized swine femoral arteries after local delivery. A femoral artery of a Yorkshire crossbred swine was balloon traumatized by overinflation and rotation of a Vascu-Flo™ Silicone embolectomy catheter. Balloon trauma was immediately followed by intravascular delivery of 10 μg/ml ^3H-cytochalasin B crystals (Sigma Chemical Co., St. Louis, Mo.) in saline (saturated) for three minutes under 1 atm of pressure. Blood flow was resumed in the artery for five minutes prior to sacrifice of the animal.
# [9] = Stability and metabolism in saline, human plasma and human whole blood (HPLC); type: in vitro ADME; settings: 20 hours at 37° C.
# Description: To determine the metabolism of ^3H-cytochalasin B in human blood, ^3H-cytochalasin B (8 μg/ml) was dissolved in saline; 1:1 dilution of saline and human plasma; or 1:1 dilution of saline and human whole blood.
# [10] = Human liver slices distribution and metabolism study (HPLC); type: in vitro ADME
# Description: ^3H-cytochalasin B at a dose of 1.5 or 8 μg/ml was mixed with viable or non-viable human liver slices and media, and the amount of ^3H-cytochalasin B in media or tissue assessed by HPLC (Tables 8 and 9).
# [11] = 1.5 μg/ml, Media/viable tissue, 1 h
# [12] = 1.5 μg/ml, Media/viable tissue, 1 h at 37° C.
# [13] = 1.5 μg/ml, Media/viable tissue, 4 h
# [14] = 8 μg/ml, Media/boiled tissue, 4 h
# [15] = 8 μg/ml, Media/boiled tissue, 24 h
compound,measurement,setting,value
CC(=O)O[C@@H]1/C=C\[C@@](C)(O)C(=O)[C@@H](C)C/C=C\[C@H]2[C@H](O)C(C)=C(C)[C@H]3C(Cc4ccccc4)NC(=O)[C@]132 (stereo partly shown) [cytochalasin C],"MED, DNA synthesis assay",[1],0.01 µg/mL
O=[N+]([O-])OCC(CO[N+](=O)[O-])O[N+](=O)[O-] [nitroglycerin],DNA synthesis inhibition compared with protein synthesis inhibition,[1],to a greater extent than they inhibited protein synthesis
CN[C@@H]1C[C@H]2O[C@@](C)([C@@H]1OC)n1c3ccccc3c3c4c(c5c6ccccc6n2c5c31)C(=O)NC4 [staurosporin],"minimum effective dose (MED), DNA assay",[1],1 ng/mL
same,cytotoxicity grade at in vitro effective dosage,[2],2
same,"minimum effective dose (MED), protein synthesis assay",[3],100 ng/mL
Cc1ccc(C(=O)Nc2ccc(S(=O)(=O)O)c3cc(S(=O)(=O)O)cc(S(=O)(=O)O)c23)cc1NC(=O)c1cccc(NC(=O)Nc2cccc(C(=O)Nc3cc(C(=O)Nc4ccc(S(=O)(=O)O)c5cc(S(=O)(=O)O)cc(S(=O)(=O)O)c45)ccc3C)c2)c1 [suramin],DNA synthesis inhibition compared with protein synthesis inhibition,[1],to a greater extent than they inhibited protein synthesis
CC(=O)O[C@H]1C(=O)[C@@]2(C)[C@H]([C@H](OC(=O)c3ccccc3)[C@]3(O)C[C@H](OC(=O)[C@H](O)[C@@H](NC(=O)c4ccccc4)c4ccccc4)C(C)=C1C3(C)C)[C@]1(OC(C)=O)CO[C@@H]1C[C@@H]2O [taxol],morphometry vs untreated controls,[4],statistically significantly larger luminal areas and no neointimal proliferation
same,post-surgical weight gain,[4],delay in post-surgical weight gain
same,neointimal area and neointimal/medial ratio vs control,[5]; 0.01 mg,reduction in their neointimal area and neointimal/medial ratio
same,toxicity,[5]; 0.01 mg,no
same,neointimal area and neointimal/medial ratio vs control,[5]; 0.1 mg,reduction in their neointimal area and neointimal/medial ratio
same,toxicity,[5]; 0.1 mg,minimal
same,toxicity,[5]; 1.0 mg,limited
^3H-cytochalasin B,injected dose in circulation,[6]; by 15 minutes,less than 1%
same,tissues with significant retention of 3H activity,"[6]; mouse, in vivo","Only liver, skeletal muscle and intestines showed significant retention"
same,cytotoxicity of agent or its metabolites,[7],not cytotoxic
same,tissue localization,[8],localized predominantly to the adventitia
same,metabolism,[9]; 8 μg/ml in 1:1 saline and human plasma,not metabolized
same,metabolism,[9]; 8 μg/ml in 1:1 saline and human whole blood,metabolized by human whole blood
same,metabolism,[9]; 8 μg/ml in saline,not metabolized
same,total reactivity in the tissue,[10],less than 20%
same,total reactivity present in the media,[10],greater than 80%
same,% Metabolized of Extractable Activity,[10]; [11],43.0%
same,% Non extractable Activity,[10]; [11],0.5%
same,% Activity in Media,[10]; [12],84%
same,% Activity in Tissue,[10]; [12],16%
same,% Activity in Media,[10]; [13],84%
same,% Activity in Tissue,[10]; [13],16%
same,% Metabolized of Extractable Activity,[10]; [13],77.0%
same,% Metabolized of Extractable Activity,"[10]; 1.5 μg/ml, Media/viable tissue, 24 h",98.7%
same,% Metabolized of Extractable Activity,"[10]; 8 μg/ml, Media Only, 1 h",5%
same,% Metabolized of Extractable Activity,"[10]; 8 μg/ml, Media Only, 24 h",5%
same,% Non extractable Activity,"[10]; 8 μg/ml, Media/boiled tissue, 1 h",0.5%
same,% Extractable Activity,[10]; [14],99.0%
same,% Metabolized of Extractable Activity,[10]; [14],5%
same,% Non extractable Activity,[10]; [14],1%
same,% Activity in Media,[10]; [15],87%
same,% Activity in Tissue,[10]; [15],13%
same,% Metabolized of Extractable Activity,[10]; [15],5%
same,% Non extractable Activity,[10]; [15],1.3%
same,% Metabolized of Extractable Activity,"[10]; 8 μg/ml, Media/viable tissue, 1 h",24.2%
same,% Metabolized of Extractable Activity,"[10]; 8 μg/ml, Media/viable tissue, 4 h",59.4%
same,% Metabolized of Extractable Activity,"[10]; 8 μg/ml, Media/viable tissue, 24 h",98.0%
